Data from ChEMBL document CHEMBL4364319 (Eur J Med Chem, 2019).
The source made the active and inactive calls. The calls are words filed in the database; no cut-off is given here.

Columns and labels:
[1] = system: Mus musculus; experiment: Anti-diabetic activity in db/db mouse assessed as reduction in fasting blood glucose leave at 3 mg/kg, po dosed once daily for 3 weeks measured for every 7 days; format: functional, organism-based
[2] = system: Mus musculus; experiment: Anti-diabetic activity in 8 hrs-fasted C57BL/6 db/db mouse assessed as reduction in blood glucose AUC (0 to 120 mins) at 1 mg/kg, po pretreated for 60 mins followed by glucose challenge and measured after 120 mins post glucose challenge by OGTT relative to control; format: functional; design: scale not given: the % may be the effect or the level left
[3] = system: Mus musculus; experiment: Anti-diabetic activity in po dosed 8 hrs-fasted C57BL/6 db/db mouse assessed as increase in glucose tolerance pretreated for 60 mins followed by glucose challenge and measured after 120 mins post glucose challenge by OGTT; format: functional, organism-based
[4] = Stability in Sprague-Dawley rat plasma assessed as compound remaining at 1 uM measured up to 120 mins by LC-MS/MS analysis relative to control; format: ADME, cell-free; conditions: read-out: Stability
[5] = system: Mus musculus; experiment: Anti-diabetic activity in db/db mouse assessed as increase in glucose tolerance at 10 mg/kg, po dosed once daily for 3 weeks following 12 hrs fasting and glucose challenge measured up to 120 mins; format: functional, organism-based
[6] = system: Mus musculus; experiment: Anti-diabetic activity in 8 hrs-fasted C57BL/6 db/db mouse assessed as reduction in blood glucose AUC (0 to 120 mins) at 3 mg/kg, po pretreated for 60 mins followed by glucose challenge and measured after 120 mins post glucose challenge by OGTT relative to control; format: functional; design: scale not given: the % may be the effect or the level left
[7] = biological target: Dipeptidyl peptidase 9 (Homo sapiens, UniProt Q86TI2); experiment: Inhibition of DPP9 (unknown origin) using Gly-Pro-AMC as substrate preincubated for 15 mins followed by substrate addition measured at 60 secs interval for 20 mins by fluorometic method
[8] = system: Mus musculus; experiment: Anti-diabetic activity in db/db mouse assessed as reduction in blood glucose AUC (0 to 120 mins) at 3 mg/kg, po dosed once daily for 3 weeks following 12 hrs fasting and glucose challenge measured up to 120 mins relative to control; format: functional; design: scale not given: the % may be the effect or the level left
[9] = system: Mus musculus; experiment: Anti-diabetic activity in db/db mouse assessed as reduction in blood glucose AUC (0 to 120 mins) at 10 mg/kg, po dosed once daily for 3 weeks following 12 hrs fasting and glucose challenge measured up to 120 mins relative to control; format: functional; design: scale not given: the % may be the effect or the level left
[10] = Half life in Sprague-Dawley rat assessed as (R)-2-((8-(3-aminopiperidin-1-yl)-7-(but-2-yn-1-yl)-3-methyl-2,6-dioxo-2,3,6,7-tetrahydro-1H-purin-1-yl)methyl)-5-chlorobenzoic acid level at 10 mg/kg, po via gavage after 48 hrs by LC-MS/MS analysis; format: ADME, organism-based; conditions: in vivo
[11] = species on record: Rattus norvegicus; experiment: animal or person; conditions: Sprague-Dawley, po, 12 h, read-out: INH
[12] = Tmax in Sprague-Dawley rat assessed as (R)-2-((8-(3-aminopiperidin-1-yl)-7-(but-2-yn-1-yl)-3-methyl-2,6-dioxo-2,3,6,7-tetrahydro-1H-purin-1-yl)methyl)-5-chlorobenzoic acid level at 10 mg/kg, po via gavage after 48 hrs by LC-MS/MS analysis; format: ADME, organism-based; conditions: in vivo
[13] = AUC (0 to infinity) in Sprague-Dawley rat assessed as (R)-2-((8-(3-aminopiperidin-1-yl)-7-(but-2-yn-1-yl)-3-methyl-2,6-dioxo-2,3,6,7-tetrahydro-1H-purin-1-yl)methyl)-5-chlorobenzoic acid level at 10 mg/kg, po via gavage after 48 hrs by LC-MS/MS analysis; format: ADME, organism-based; design: dose 10 mg/kg, route oral, time infinity; conditions: in vivo
[14] = Cmax in Sprague-Dawley rat at 10 mg/kg, po via gavage after 48 hrs by LC-MS/MS analysis; format: ADME, organism-based; design: dose 10 mg/kg, route oral; conditions: in vivo
[15] = system: Mus musculus; experiment: Anti-diabetic activity in 8 hrs-fasted C57BL/6 db/db mouse assessed as reduction in blood glucose AUC (0 to 120 mins) at 10 mg/kg, po pretreated for 60 mins followed by glucose challenge and measured after 120 mins post glucose challenge by OGTT relative to control; format: functional; design: scale not given: the % may be the effect or the level left
[16] = Stability in PBS at pH 7.4 assessed as compound remaining at 1 uM after 120 mins by LC-MS/MS analysis relative to control; format: physicochemical; conditions: read-out: Stability
[17] = system: Mus musculus; experiment: Anti-diabetic activity in db/db mouse assessed as reduction in fasting blood glucose leave at 10 mg/kg, po dosed once daily for 3 weeks measured for every 7 days; format: functional, organism-based
[18] = Tmax in Sprague-Dawley rat at 10 mg/kg, po via gavage after 48 hrs by LC-MS/MS analysis; format: ADME, organism-based; conditions: in vivo
[19] = Clearance in Sprague-Dawley rat at 10 mg/kg, po via gavage after 48 hrs by LC-MS/MS analysis; format: ADME, organism-based; conditions: in vivo
[20] = Clearance in Sprague-Dawley rat assessed as (R)-2-((8-(3-aminopiperidin-1-yl)-7-(but-2-yn-1-yl)-3-methyl-2,6-dioxo-2,3,6,7-tetrahydro-1H-purin-1-yl)methyl)-5-chlorobenzoic acid level at 10 mg/kg, po via gavage after 48 hrs by LC-MS/MS analysis; format: ADME, organism-based; conditions: in vivo
[21] = Half life in Sprague-Dawley rat at 10 mg/kg, po via gavage after 48 hrs by LC-MS/MS analysis; format: ADME, organism-based; conditions: in vivo
[22] = species on record: Rattus norvegicus; experiment: animal or person; conditions: Sprague-Dawley, po, 24 h, read-out: INH
[23] = Cmax in Sprague-Dawley rat assessed as (R)-2-((8-(3-aminopiperidin-1-yl)-7-(but-2-yn-1-yl)-3-methyl-2,6-dioxo-2,3,6,7-tetrahydro-1H-purin-1-yl)methyl)-5-chlorobenzoic acid level at 10 mg/kg, po via gavage after 48 hrs by LC-MS/MS analysis; format: ADME, organism-based; design: dose 10 mg/kg, route oral; conditions: in vivo
[24] = Cytotoxicity against human LO2 cells assessed as cell viability at 20 uM after 48 hrs by MTT assay; format: cell-based, L02; conditions: read-out: Activity
[25] = system: Mus musculus; experiment: Anti-diabetic activity in 12 hrs-fasted ICR mouse assessed as reduction in blood glucose AUC (0 to 120 mins)at 10 mg/kg, po pretreated for 60 mins followed by glucose challenge and measured after 120 mins post glucose challenge by OGTT relative to control; format: functional; design: scale not given: the % may be the effect or the level left
[26] = AUC (0 to infinity) in Sprague-Dawley rat at 10 mg/kg, po via gavage after 48 hrs by LC-MS/MS analysis; format: ADME, organism-based; design: dose 10 mg/kg, route oral, time infinity; conditions: in vivo
[27] = Oral bioavailability in Sprague-Dawley rat assessed as (R)-2-((8-(3-aminopiperidin-1-yl)-7-(but-2-yn-1-yl)-3-methyl-2,6-dioxo-2,3,6,7-tetrahydro-1H-purin-1-yl)methyl)-5-chlorobenzoic acid level at 10 mg/kg via gavage after 48 hrs by LC-MS/MS analysis; format: ADME, organism-based; conditions: in vivo
[28] = biological target: Dipeptidyl peptidase 8 (Homo sapiens, UniProt Q6V1X1); experiment: Inhibition of DPP8 (unknown origin) using Gly-Pro-AMC as substrate preincubated for 15 mins followed by substrate addition measured at 60 secs interval for 20 mins by fluorometic method
[29] = Toxicity in db/db mouse assessed as increase in body weight at 3 to 10 mg/kg, po dosed once daily for 3 weeks and measured every day; format: organism-based; conditions: in vivo, 504 h

Chain of Dipeptidyl peptidase 9 (Q86TI2 whole entry): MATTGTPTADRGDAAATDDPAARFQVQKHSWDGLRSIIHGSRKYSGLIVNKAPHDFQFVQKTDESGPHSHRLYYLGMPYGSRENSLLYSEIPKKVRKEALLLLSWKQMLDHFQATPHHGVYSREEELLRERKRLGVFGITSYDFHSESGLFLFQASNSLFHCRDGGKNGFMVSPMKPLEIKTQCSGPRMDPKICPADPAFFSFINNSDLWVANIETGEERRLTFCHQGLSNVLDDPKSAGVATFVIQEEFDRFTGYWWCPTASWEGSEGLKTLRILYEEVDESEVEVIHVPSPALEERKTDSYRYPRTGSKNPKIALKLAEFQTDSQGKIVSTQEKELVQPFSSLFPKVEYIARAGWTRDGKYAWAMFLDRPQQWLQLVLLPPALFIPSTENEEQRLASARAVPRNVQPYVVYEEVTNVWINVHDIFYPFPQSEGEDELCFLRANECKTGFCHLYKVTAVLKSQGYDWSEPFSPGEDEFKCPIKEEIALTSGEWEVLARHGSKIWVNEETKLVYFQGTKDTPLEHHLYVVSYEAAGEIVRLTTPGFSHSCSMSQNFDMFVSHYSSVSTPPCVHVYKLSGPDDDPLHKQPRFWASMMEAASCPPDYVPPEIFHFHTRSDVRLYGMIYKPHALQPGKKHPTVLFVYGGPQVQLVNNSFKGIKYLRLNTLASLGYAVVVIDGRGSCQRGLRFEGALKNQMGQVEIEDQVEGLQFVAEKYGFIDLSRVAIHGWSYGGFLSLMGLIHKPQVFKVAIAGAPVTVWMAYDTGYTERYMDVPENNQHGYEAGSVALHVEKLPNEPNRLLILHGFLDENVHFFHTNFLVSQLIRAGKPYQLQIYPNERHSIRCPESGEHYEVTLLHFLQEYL
Chain of Dipeptidyl peptidase 8 (Q6V1X1 whole entry): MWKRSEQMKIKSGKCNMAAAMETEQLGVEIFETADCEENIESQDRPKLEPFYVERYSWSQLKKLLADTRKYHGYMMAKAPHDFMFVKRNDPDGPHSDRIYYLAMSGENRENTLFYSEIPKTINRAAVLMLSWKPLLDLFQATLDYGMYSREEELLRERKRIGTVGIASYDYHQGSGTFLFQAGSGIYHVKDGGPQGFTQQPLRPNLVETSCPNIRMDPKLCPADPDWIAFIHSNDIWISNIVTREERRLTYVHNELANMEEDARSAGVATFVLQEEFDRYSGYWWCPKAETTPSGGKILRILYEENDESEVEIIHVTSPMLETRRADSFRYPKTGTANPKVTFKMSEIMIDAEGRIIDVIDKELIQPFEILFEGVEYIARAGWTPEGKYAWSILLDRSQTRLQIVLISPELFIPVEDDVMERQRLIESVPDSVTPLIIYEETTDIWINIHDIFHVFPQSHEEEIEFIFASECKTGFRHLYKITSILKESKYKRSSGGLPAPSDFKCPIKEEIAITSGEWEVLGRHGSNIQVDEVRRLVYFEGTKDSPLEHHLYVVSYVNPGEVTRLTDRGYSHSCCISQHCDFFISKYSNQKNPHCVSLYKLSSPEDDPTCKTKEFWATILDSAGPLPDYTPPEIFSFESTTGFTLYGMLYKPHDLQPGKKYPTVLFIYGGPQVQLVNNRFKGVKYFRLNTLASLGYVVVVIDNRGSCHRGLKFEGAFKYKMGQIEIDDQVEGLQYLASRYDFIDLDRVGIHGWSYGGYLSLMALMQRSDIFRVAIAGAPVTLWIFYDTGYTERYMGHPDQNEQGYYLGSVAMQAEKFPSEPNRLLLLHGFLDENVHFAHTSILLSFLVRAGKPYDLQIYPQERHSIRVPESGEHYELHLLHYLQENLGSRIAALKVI

CC#CCn1c(N2CCC[C@@H](N)C2)nc2c1c(=O)n(Cc1ccc(Cl)cc1C(=O)OC)c(=O)n2C
Activity [1]: Active | Activity [2]: 26.4% | Activity [3]: Dose-dependent effect | remaining at 2 h, 1 µM [4]: 65.2% | Activity [5]: Active | Activity [6]: 28.8% | IC50 [7]: > 100 µM | Activity [8]: 6% | Activity [9]: 13.2% | t1/2 [10]: 11.81 h | inhibition in vivo at 10 mg/kg [11]: 85% | Tmax [12]: 1 h | AUC [13]: 3.74605 µg·h/mL | Cmax [14]: 1180 ng/mL | Activity [15]: 54.7% | remaining at 2 h, 1 µM [16]: 101% | Activity [17]: Active | Tmax [18]: 1 h | CL [19]: 0.16 L/h/kg | CL [20]: 0.27 L/h/kg | half-life [21]: 605 min | inhibition in vivo at 10 mg/kg [22]: 60% | Cmax [23]: 693.32 µg/L | viability at 48 h, 20 µM [24]: 90% | Activity [25]: 17.43% | AUC [26]: 6.1073 µg·h/mL | F [27]: 19.46% | IC50 [28]: > 100 µM | Activity [29]: Non-Toxic
